In patent publication US20230116972A1, “CD38 MODULATORS AND METHODS OF USE THEREOF” (Cytokinetics, Inc., priority 2021, published 2023) one finds IC50 data, which are given here for 23 compounds.

In experiment [1] the target is T1, endogenous CD38 in HL60 cells (Homo sapiens, UniProt P28907).
T1 construct: endogenous in cells; host or cells: HL60 (leukemic cells, treated with all-trans retinoic acid)
T1 sequence (P28907 1-300): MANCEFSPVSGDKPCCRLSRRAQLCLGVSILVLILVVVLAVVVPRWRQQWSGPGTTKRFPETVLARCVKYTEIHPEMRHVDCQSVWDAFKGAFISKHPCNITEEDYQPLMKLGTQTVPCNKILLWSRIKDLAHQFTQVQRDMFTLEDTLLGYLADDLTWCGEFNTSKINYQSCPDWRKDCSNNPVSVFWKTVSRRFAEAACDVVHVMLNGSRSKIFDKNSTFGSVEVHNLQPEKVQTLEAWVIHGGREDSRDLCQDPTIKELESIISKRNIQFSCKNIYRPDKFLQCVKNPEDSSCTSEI
In words: cellular CD38 assay in HL60 cells (cellular NAD levels). It is filed as cell-based. The following applies: all-trans retinoic acid, 24 hours, read-out: hCD38 HL60 ATRA NAD Cell Diaphorase IC50. The gist of the method: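 Endogenous CD38 inhibition is inferred from NAD levels in HL60 cells after 24 h compound exposure at 20000 cells per well. A lytic cycling readout (0.2 U/mL diaphorase, 0.8 U/mL alcohol dehydrogenase, resazurin, FMN, ethanol, 0.2% Triton X-100, Tris/EDTA pH 8.4) ran 60 min at ambient temperature. Resorufin fluorescence was read at 540/590 nm.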

In the next experiment the target is T2, mouse CD38 (Mus musculus, UniProt P56528).
T2 sequence (P56528 1-304): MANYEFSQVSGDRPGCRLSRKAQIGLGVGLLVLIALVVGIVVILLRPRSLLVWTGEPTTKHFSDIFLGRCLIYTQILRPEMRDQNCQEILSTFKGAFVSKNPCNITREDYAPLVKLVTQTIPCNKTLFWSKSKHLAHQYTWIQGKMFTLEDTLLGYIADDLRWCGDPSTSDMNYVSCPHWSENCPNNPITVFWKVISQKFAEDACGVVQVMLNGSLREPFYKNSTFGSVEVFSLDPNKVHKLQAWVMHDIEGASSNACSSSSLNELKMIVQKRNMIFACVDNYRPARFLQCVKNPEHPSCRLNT
Nature of the experiment: mouse recombinant CD38 enzyme assay (hydrolysis of NAD+). It is filed as biochemical. The following applies: read-out: mCD38 BioChem IC50. The method, boiled down: (§1)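 Steps: compound and recombinant enzyme are mixed, NAD+ is added, and the reaction runs 60 min at room temperature. An ADH/ethanol mix containing a CD38 inhibitor halts hydrolysis and forms NADH. After NaOH quench, resazurin plus diaphorase produce fluorescent resorufin, read at 540/590 nm.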

The target of another experiment is T3, human CD38 (Homo sapiens, UniProt P28907).
T3 sequence (P28907 1-300): T1 sequence (P28907 1-300)
Nature of the experiment: human recombinant CD38 enzyme assay (hydrolysis of NAD+). It is filed as biochemical. Conditions: human recombinant CD38, 0.4 nM enzyme, 62.5 μM NAD+; read-out: hCD38 BioChem IC50. The gist of the method: as §1

In the case of `COc1cc(C(=O)Nc2ccc(C(F)(F)F)nc2)nc(-n2ccnc2)c1` [Compound 221, 6-(1H-imidazol-1-yl)-4-methoxy-N-(6-(trifluoromethyl)pyridin-3-yl)picolinamide], the IC50 in experiment [1] was 1130 nM; on mouse CD38 it was 2.2 nM; on human CD38 it was 3.6 nM.
Turning to `COCCOc1cc(-c2cncn2C)nc(C(=O)Nc2ccc(C(F)F)nc2)n1` [Compound 224, N-(6-(difluoromethyl)pyridin-3-yl)-4-(2-methoxyethoxy)-6-(1-methyl-1H-imidazol-5-yl)pyrimidine-2-carboxamide], the IC50 is 707 nM in experiment [1], 1.1 nM on mouse CD38 and 5.6 nM on human CD38.
On the same counts, the results for `COc1cc(C(=O)Nc2ccc(C(F)F)nc2)nc(-c2cncn2C)c1` [Compound 225, N-(6-(difluoromethyl)pyridin-3-yl)-4-methoxy-6-(1-methyl-1H-imidazol-5-yl)picolinamide] are 1080 nM, 3.8 nM and 7 nM.
The like results for `COc1cc(C(=O)Nc2ccc(C(F)(F)F)nc2)nc(-c2cncn2C)c1` [Compound 226, 4-methoxy-6-(1-methyl-1H-imidazol-5-yl)-N-(6-(trifluoromethyl)pyridin-3-yl)picolinamide] were, in that order, 5210 nM, 12.7 nM and 20.4 nM.
The like results for `Cn1cncc1-c1nc(C(=O)N[C@H]2CC[C@H](C(F)F)CC2)cc(C2CCOCC2)n1` [Compound 227, N-((1r,4r)-4-(difluoromethyl)cyclohexyl)-2-(1-methyl-1H-imidazol-5-yl)-6-(tetrahydro-2H-pyran-4-yl)pyrimidine-4-carboxamide] were, in that order, 2070 nM, 2.4 nM and 9.3 nM.
Consider `Cn1cncc1-c1nc(C(=O)N[C@H]2CCc3c(F)cccc32)cc(C2CCOCC2)n1` [Compound 228, (S)-N-(4-fluoro-2,3-dihydro-1H-inden-1-yl)-2-(1-methyl-1H-imidazol-5-yl)-6-(tetrahydro-2H-pyran-4-yl)pyrimidine-4-carboxamide], for which the IC50 in experiment [1] turned out to be 3880 nM; on mouse CD38 it was 4.7 nM; at human CD38 it was 16.2 nM.
`Cn1cncc1-c1nc(C(=O)N[C@H]2CCc3cc(F)ccc32)cc(C2CCOCC2)n1` [Compound 229, (S)-N-(5-fluoro-2,3-dihydro-1H-inden-1-yl)-2-(1-methyl-1H-imidazol-5-yl)-6-(tetrahydro-2H-pyran-4-yl)pyrimidine-4-carboxamide]: the IC50 in experiment [1] was 4000 nM; at mouse CD38 it was 2.5 nM; at human CD38, 11.2 nM.
On the same counts, the results for `Cn1cncc1-c1nc(C(=O)N[C@H]2C[C@H](c3ccccc3)C2)cc(C2CCOCC2)n1` [Compound 230, 2-(1-methyl-1H-imidazol-5-yl)-N-((1r,3r)-3-phenylcyclobutyl)-6-(tetrahydro-2H-pyran-4-yl)pyrimidine-4-carboxamide] are 1460 nM, 1.7 nM and 4.3 nM.
The like results for `COCCO[C@H]1CC[C@H](NC(=O)c2nc(OC)cc(-c3cncn3C)n2)CC1` [Compound 231, 4-methoxy-N-((1r,4r)-4-(2-methoxyethoxy)cyclohexyl)-6-(1-methyl-1H-imidazol-5-yl)pyrimidine-2-carboxamide] were, in that order, 10200 nM, 9 nM and 72.2 nM.
On the same counts, the results for `COCCO[C@H]1CC[C@H](NC(=O)c2nc(C)cc(-c3cncn3C)n2)CC1` [Compound 232, N-((1r,4r)-4-(2-methoxyethoxy)cyclohexyl)-4-methyl-6-(1-methyl-1H-imidazol-5-yl)pyrimidine-2-carboxamide] are 7290 nM, 8.1 nM and 53.7 nM.
Turning to `COCCOc1cc(-c2cncn2C)nc(C(=O)Nc2ccc(C(F)(F)F)nc2)n1` [Compound 233, 4-(2-methoxyethoxy)-6-(1-methyl-1H-imidazol-5-yl)-N-(6-(trifluoromethyl)pyridin-3-yl)pyrimidine-2-carboxamide], the figures for the IC50 (in experiment [1]; at mouse CD38; on human CD38) were 1040 nM, 1.1 nM and 6 nM, respectively.
As to `COc1cc(-c2cncn2C)nc(C(=O)Nc2ccc(C(F)(F)F)nc2)n1` [Compound 234, 4-methoxy-6-(1-methyl-1H-imidazol-5-yl)-N-(6-(trifluoromethyl)pyridin-3-yl)pyrimidine-2-carboxamide], the IC50 amounted to 557 nM in experiment [1], 1.4 nM at mouse CD38 and 2.4 nM at human CD38.
`Cc1cc(-c2cncn2C)nc(C(=O)Nc2ccc(C(F)(F)F)nc2)n1` [Compound 235, 4-methyl-6-(1-methyl-1H-imidazol-5-yl)-N-(6-(trifluoromethyl)pyridin-3-yl)pyrimidine-2-carboxamide]: the IC50 came out at 376 nM in experiment [1], 1.6 nM on mouse CD38 and 3.8 nM on human CD38.
On the same counts, the results for `O=C(N[C@H]1C[C@H](c2ccccc2F)C1)c1nccc(-n2ccnc2)n1` [Compound 236, N-((1r,3r)-3-(2-fluorophenyl)cyclobutyl)-4-(1H-imidazol-1-yl)pyrimidine-2-carboxamide] are 1870 nM, 27.2 nM and 46.4 nM.
On the same counts, the results for `O=C(N[C@H]1C[C@H](c2cccc(F)c2)C1)c1nccc(-n2ccnc2)n1` [Compound 237, N-((1r,3r)-3-(3-fluorophenyl)cyclobutyl)-4-(1H-imidazol-1-yl)pyrimidine-2-carboxamide] are 2200 nM, 29.5 nM and 33.8 nM.
On the same counts, the results for `O=C(N[C@H]1C[C@H](c2ccc(F)cc2)C1)c1nccc(-n2ccnc2)n1` [Compound 238, N-((1r,3r)-3-(4-fluorophenyl)cyclobutyl)-4-(1H-imidazol-1-yl)pyrimidine-2-carboxamide] are 2380 nM, 40.9 nM and 43.2 nM.
For the compound `O=C(N[C@H]1C[C@H](c2ccc(F)cc2F)C1)c1nccc(-n2ccnc2)n1` [Compound 239, N-((1r,3r)-3-(2,4-difluorophenyl)cyclobutyl)-4-(1H-imidazol-1-yl)pyrimidine-2-carboxamide], the IC50 came to 3130 nM in experiment [1], 33.6 nM on mouse CD38 and 61.2 nM at human CD38.
The like results for `Cn1cncc1-c1ccnc(C(=O)N[C@H]2C[C@H](c3ccccc3F)C2)n1` [Compound 240, N-((1r,3r)-3-(2-fluorophenyl)cyclobutyl)-4-(1-methyl-1H-imidazol-5-yl)pyrimidine-2-carboxamide] were, in that order, 2060 nM, 13.3 nM and 27.9 nM.
On the same counts, the results for `Cn1cncc1-c1ccnc(C(=O)N[C@H]2C[C@H](c3cccc(F)c3)C2)n1` [Compound 241, N-((1r,3r)-3-(3-fluorophenyl)cyclobutyl)-4-(1-methyl-1H-imidazol-5-yl)pyrimidine-2-carboxamide] are 2050 nM, 14.4 nM and 16.7 nM.
The like results for `Cn1cncc1-c1ccnc(C(=O)N[C@H]2C[C@H](c3ccc(F)cc3)C2)n1` [Compound 242, N-((1r,3r)-3-(4-fluorophenyl)cyclobutyl)-4-(1-methyl-1H-imidazol-5-yl)pyrimidine-2-carboxamide] were, in that order, 2370 nM, 21.3 nM and 28.8 nM.
With `Cn1cncc1-c1ccnc(C(=O)N[C@H]2C[C@H](c3ccc(F)cc3F)C2)n1` [Compound 243, N-((1r,3r)-3-(2,4-difluorophenyl)cyclobutyl)-4-(1-methyl-1H-imidazol-5-yl)pyrimidine-2-carboxamide], the IC50 in experiment [1] was found to be 3720 nM; at mouse CD38, 14.6 nM; on human CD38, 28.1 nM.
On the same counts, the results for `COCCOc1cc(C(=O)Nc2ccc(C(F)F)nc2)nc(-n2ccnc2)c1` [Compound 244, N-(6-(difluoromethyl)pyridin-3-yl)-6-(1H-imidazol-1-yl)-4-(2-methoxyethoxy)picolinamide] are 499 nM, 1 nM and 1.9 nM.
Regarding `COCCOc1cc(C(=O)Nc2ccc(C(F)(F)F)nc2)nc(-n2ccnc2)c1` [Compound 245, 6-(1H-imidazol-1-yl)-4-(2-methoxyethoxy)-N-(6-(trifluoromethyl)pyridin-3-yl)picolinamide], the IC50 in experiment [1] amounted to 749 nM; on mouse CD38 it was 1 nM; at human CD38 it was 2.8 nM.
